Experimental data from patent publication US11351137B2, “Composition and method for dual targeting in treatment of neuroendocrine tumors” (NANOPHARMACEUTICALS LLC, priority 2018, dated 2022).
Entries after “also recorded” stand apart in the source; their conditions may differ. One block for each molecule: values may come before it.

Legend:
[1] = test system: SKNF2 cell lines; assay: Comparative examples: BG, BG derivatives, TAT derivative and co-administration versus Composition 300 in mice implanted with SKNF2 cell lines; assay type: in vivo; settings: for Percentage of Tumor Growth Suppression / Reduction of tumor viability: Dosage 3 mg/kg
Experimental: FIGS. 12a and 12b shown the effect of the control and treatment with BG, BG derivatives, thyrointegrin antagonists such as TAT derivatives, and combinations (co-administration) thereof, versus Composition 300 (BG-P-TAT) on tumor cell necrosis of mice implanted with SKNF2 cell lines.
Further, even a combination treatment of two triazole tetrac derivatives in combination delivered subcutaneously daily for three (3) weeks at 3 mg/kg only achieves a reduction of 40-50% for tumor growth and tumor viability. Similar results are obtained with treatments using benzyl guanidine and benzyl guanidine derivatives.
For example, the graph of FIG. 12b includes the effect of a triazole tetrac derivative (referred to as TAT) on tumor weight when compared with a control group (phosphate-buffered saline “PBS”). The specific derivative tested was beta cyclodextrin triazole tetrac.
Again, beta cyclodextrin triazole tetrac was the tetrac derivative used.
Composition 300 achieves approximately 80% reduction in tumor. Further, the viability of residual tumor was reduced by 80%.

[2] = target: purified integrin αvβ3 receptor (Homo sapiens, UniProt P05106+P06756); assay: Binding affinity towards purified integrin αvβ3 receptor
Chain of purified integrin αvβ3 receptor (P06756 31-889 limits assumed): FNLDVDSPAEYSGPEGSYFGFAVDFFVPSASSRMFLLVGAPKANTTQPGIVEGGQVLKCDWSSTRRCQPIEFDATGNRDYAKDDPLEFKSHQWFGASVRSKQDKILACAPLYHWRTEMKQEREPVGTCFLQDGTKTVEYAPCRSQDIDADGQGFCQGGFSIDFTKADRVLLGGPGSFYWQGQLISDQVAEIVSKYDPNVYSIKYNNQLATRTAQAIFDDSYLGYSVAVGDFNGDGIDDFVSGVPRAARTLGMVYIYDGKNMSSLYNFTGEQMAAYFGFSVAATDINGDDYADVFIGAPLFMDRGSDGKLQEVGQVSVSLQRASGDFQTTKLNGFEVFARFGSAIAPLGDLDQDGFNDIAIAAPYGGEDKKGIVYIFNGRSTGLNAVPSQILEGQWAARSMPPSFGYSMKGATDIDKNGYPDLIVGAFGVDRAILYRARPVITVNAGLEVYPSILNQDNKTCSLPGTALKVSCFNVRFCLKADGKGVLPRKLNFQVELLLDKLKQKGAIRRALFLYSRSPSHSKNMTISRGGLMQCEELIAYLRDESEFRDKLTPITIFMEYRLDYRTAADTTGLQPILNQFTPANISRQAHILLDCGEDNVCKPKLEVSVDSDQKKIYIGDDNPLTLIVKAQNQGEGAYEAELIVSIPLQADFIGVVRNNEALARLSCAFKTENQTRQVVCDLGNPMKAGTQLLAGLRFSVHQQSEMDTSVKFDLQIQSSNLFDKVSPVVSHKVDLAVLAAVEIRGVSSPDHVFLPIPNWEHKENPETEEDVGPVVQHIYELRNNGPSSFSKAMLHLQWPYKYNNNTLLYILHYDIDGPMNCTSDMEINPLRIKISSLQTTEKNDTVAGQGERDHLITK
Chain of purified integrin αvβ3 receptor (P06756 891-1048 partner limits assumed): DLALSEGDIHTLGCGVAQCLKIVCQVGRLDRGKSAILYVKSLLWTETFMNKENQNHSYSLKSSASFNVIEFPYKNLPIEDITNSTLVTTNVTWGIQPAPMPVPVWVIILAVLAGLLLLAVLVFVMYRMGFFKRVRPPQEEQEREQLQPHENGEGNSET
Chain of purified integrin αvβ3 receptor (P05106 27-788): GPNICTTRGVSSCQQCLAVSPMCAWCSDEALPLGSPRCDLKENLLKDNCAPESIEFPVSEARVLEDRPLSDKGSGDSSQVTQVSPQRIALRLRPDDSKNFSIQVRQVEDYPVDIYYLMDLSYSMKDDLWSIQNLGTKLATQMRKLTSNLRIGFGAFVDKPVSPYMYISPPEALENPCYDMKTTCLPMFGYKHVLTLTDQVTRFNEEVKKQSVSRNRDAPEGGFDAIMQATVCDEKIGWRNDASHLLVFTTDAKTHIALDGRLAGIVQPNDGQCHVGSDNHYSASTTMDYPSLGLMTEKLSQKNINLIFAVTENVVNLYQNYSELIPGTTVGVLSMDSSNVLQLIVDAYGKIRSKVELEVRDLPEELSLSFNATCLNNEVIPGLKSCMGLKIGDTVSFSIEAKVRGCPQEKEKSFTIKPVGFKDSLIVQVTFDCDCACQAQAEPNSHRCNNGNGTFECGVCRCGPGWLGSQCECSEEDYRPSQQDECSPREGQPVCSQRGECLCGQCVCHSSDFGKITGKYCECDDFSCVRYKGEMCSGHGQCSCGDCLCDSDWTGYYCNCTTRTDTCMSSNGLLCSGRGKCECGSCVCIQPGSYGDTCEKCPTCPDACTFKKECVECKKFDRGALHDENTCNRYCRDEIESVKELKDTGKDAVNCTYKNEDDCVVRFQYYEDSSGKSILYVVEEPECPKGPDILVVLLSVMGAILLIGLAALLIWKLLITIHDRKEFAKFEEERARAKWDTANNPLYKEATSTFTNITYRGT

[3] = test system: neuroblastoma SKNF1 cells; assay: Compositions 7a, 7b and 15 on subcutaneously implanted SKNF1 neuroblastoma tumor in female nude mice; assay type: in vivo
Experimental: The efficacy of Compositions 7a (dI-BG-P-TAT), 7b (dM-BG-P-TAT), and 15 (BG-P-PAT) were tested using neuroblastoma SKNF1 cells implanted into nude female mice similar to the examples discussed above for Composition 300 (BG-P-TAT).
Further, to compare the histopathological changes in tumors of untreated and treated groups, tumors were harvested, fixed, and stained with hematoxylin and eosin (H&E). Necrosis at low magnification of tumors from animals treated with compounds 7a, 7b, and 15 versus control is seen clearly as shown in Figure. […] On the other hand, tumors from the untreated group had mostly viable tumor cells. […]

[4] = test system: SKNF2 cell lines; assay: Comparative examples: BG, BG derivatives, TAT derivative and co-administration versus Composition 300 in mice implanted with SKNF2 cell lines; assay type: in vivo; settings: 3 mg/kg subcutaneously daily for 15 days (FIGS. 12a, 12b)
[5] = test system: SKNF1 neuroblastoma tumors; assay: Cy5 fluorescence imaging of subcutaneously implanted SKNF1 tumor in athymic female mice; assay type: in vivo; settings: Cy5 labeled; 1-24 hours post-administration; compared with triazole tetrac derivative alone or benzyl guanidine derivative alone
Experimental: Athymic female mice were implanted twice each with 10^6 cells/implant. The SKNF1 cell line was used with subcutaneous xenografts.
Group 1 consisted of three mice and were treated with PEG-TAT-dye (Cy5). Group 2 consisted of three mice and were treated with PEG-BG-dye (Cy5). Group 3 consisted of three mice and were treated with TAT-PEG-BG-dye (Cy5) wherein the TAT and BG were covalently linked with a PEG linker as compound 300. The treatment groups are shown below:
Fluorescence imaging (Cy5) was conducted 1 hour, 2 hours, 4 hours, 6 hours, and 24 hours post-administration. Imaging results are shown in FIGS. 13a and 13b, in which the tumor location is circled in yellow and the Cy5 dye appears as red.

[6] = test system: neuroblastoma SKNF2 cells; assay: Composition 300 dose response on subcutaneously implanted SKNF2 neuroblastoma tumor in female nude mice; assay type: in vivo; settings: for tumor shrinkage (tumor weight) / tumor cell viability / tumor cell necrosis rate: 15 days; for tumor cell viability: control 70-75%
Experimental: The efficacy of Composition 300 (BG-P-TAT) was tested using neuroblastoma SKNF2 cells implanted into nude female mice.
Fifteen (15) female nude mice were implanted with twice with 10^6 cells/implant. The SKNF2 cell line was used with subcutaneous xenografts.
Eight (8) days following implantation, the mice were divided into four groups receiving the following treatment for 15 days:
Following fifteen (15) days of treatment, tumors were collected in order to evaluate histopathology, and the following results were collected: […]

Molecule: N=C(N)NCc1cccc([131I])c1 [MIBG, meta-iodobenzylguanidine]
- Percentage of Tumor Growth Suppression [1]: 40-50%
- Reduction of tumor viability [1]: 40-50%

- IC50 [2]: 0.3 nM
- fold increase in binding affinity relative to BG-P-TAT ([2]; αvβ3 binding): ~30 fold
Molecule: N=C(N)NCc1ccc(OCCOCCOCCOCCOCCOCCOCCOCCN2CCN(CCCOc3c(I)cc(Oc4c(I)cc(CC(=O)O)cc4I)cc3I)CC2)cc1 [Composition 15]
- tumor volume over twenty days ([3]; 3 mg/kg subcutaneously, 20 days, control rose from 175 mm^3 to 1000 mm^3): no substantial increase
- areas of necrosis, fibrosis and cell debris (H&E staining) ([3]; 3 mg/kg, 20 days of treatment): approximately 98%
- decrease in tumor weight versus control ([3]; 3 mg/kg, 20 days of treatment): 90%

Molecule: beta cyclodextrin triazole tetrac [TAT]
- tumor weight shrinkage / reduction versus control (PBS) [4]: 40-50%
- Percentage of Tumor Growth Suppression [1]: 40-50%
- Reduction of tumor viability [1]: 40-50%

Molecule: N=C(N)NCc1ccccc1 [BG, benzyl guanidine]
- Percentage of Tumor Growth Suppression [1]: 40-50%
- Reduction of tumor viability [1]: 40-50%

Molecule: N=C(N)NCc1ccc(OCCOCCOCCOCCOCCOCCOCCn2cc(COc3c(I)cc(Oc4c(I)cc(CC(=O)O)cc4I)cc3I)nn2)cc1 [Composition 300, 2-(4-(4-((1-(20-(4-(guanidinomethyl)phenoxy)-3,6,9,12,15,18-hexaoxaicosyl)-1H-1,2,3-triazol-4-yl)methoxy)-3,5-diiodophenoxy)-3,5-diiodophenyl)acetic acid]
- retention time within the tumor (Cy5 fluorescence) [5]: marked improvement
- uptake into the SKNF1 neuroblastoma tumors (Cy5 fluorescence) [5]: marked improvement; also recorded: highest intensity accumulation
- tumor shrinkage (tumor weight) ([6]; 1 mg/kg daily): 60%
- tumor cell viability ([6]; 1 mg/kg daily): 50%
- tumor cell necrosis rate ([6]; 1 mg/kg): approximately 50%
- tumor shrinkage (tumor weight) ([6]; 3 mg/kg daily): 80%
- tumor cell viability ([6]; 3 mg/kg daily): 20
- tumor cell necrosis rate ([6]; 3 mg/kg): approximately 80%
- tumor shrinkage (tumor weight) ([6]; 10 mg/kg daily): 100%
- tumor cell viability ([6]; 10 mg/kg daily): 0.00%
- tumor volume after 15 days of treatment ([6]; 10 mg/kg group, start approximately 825 mm^3, control rose to 1050 mm^3): ~100 mm^3
- tumor cell necrosis rate ([6]; 10 mg/kg): ~100%
- effect on animal body weight ([6]; 1, 3 and 10 mg/kg subcutaneously daily for 15 days, versus control animals): no effect; also recorded: no significant changes
- cancer cell necrosis ([6]; at the 3 and 10 mg/kg doses (FIG. 11 legend)): 80-100%
- abnormal animal head movements (circling) seen in control mice ([6]; treated mice, 1-10 mg/kg): disappearance
- tumor vasculature ([6]; treatment groups 1-10 mg/kg versus control): clearly diminished
- IC50 [2]: 10.3 nM
- reduction of viability of residual tumor ([1]; 3 mg/kg): 80%
- tumor weight shrinkage / reduction versus control (PBS) ([1]; 3 mg/kg subcutaneously daily for 15 days (FIGS. 12a, 12b), listed as BG-P-TAT): 80%
- Percentage of Tumor Growth Suppression [1]: 80-90%
- Reduction of tumor viability [1]: 80-90%
